In patent publication US20240124404A1, “COMPOSITION FOR TREATING DISEASES RELATED TO ADVANCED GLYCATION END PRODUCTS COMPRISING INDOLE DERIVATIVE” (METACEN THERAPEUTICS, priority 2021, published 2024):
Where two headings read alike, the source gives them in different places.

Tests used:
[1] = Methylglyoxal (MGO) trapping ability: fluorescence intensity of reaction product; format: biochemical; conditions: compound 1.0 mM in MGO+PBS pH 7.4, 37° C., 1 day; ex 355 nm / em 460 nm; 10×10^3 or more = trapping ability
Protocol: Methylglyoxal (MGO) is a main precursor of advanced glycation end products that cause complications due to diabetes mellitus. Successful trapping of methylglyoxal (MGO) can inhibit the production of advanced glycation end products.
A mixture was prepared by adding methylglyoxal (MGO) to phosphate buffered saline (PBS, Cat no. 10010023, pH 7.4). […] The fluorescence intensity of the reaction product was measured at an excitation wavelength of 355 nm and an emission wavelength of 460 nm using a VICTOR™X3 multilabel plate reader.
The higher the fluorescence intensity measured from the reaction product, the higher the ability of the compound to trap methylglyoxal. In addition, in this experimental example, when the fluorescence intensity was 10×10^3 or more, it was determined that the compound had the ability to trap methylglyoxal.

[2] = Methylglyoxal (MGO) trapping ability: free MGO concentration by HPLC; format: biochemical; conditions: compound 1:1 with MGO in PBS pH 7.4, 37° C.; for MGO concentration on day 7: MGO + PBS control 436.38; for MGO concentration on day 1: MGO + PBS control 499.53
Protocol: Specifically, a mixture was prepared by adding methylglyoxal (MGO) to phosphate buffered saline (PBS, Cat no. 10010023, pH 7.4). The compound of the present invention was added to the mixture (MGO+PBS) at a concentration of 1:1 with methylglyoxal (MGO) and reacted, and then cultured at 37° C. for 1 day.

N2a cells = assay: Protection against MGO-induced cytotoxicity in N2a cell line (MTT); conditions: Mus musculus
Protocol: Specifically, N2a cells were dispensed at 2×10^4 cells/well in a 96 well plate. Each cell line was pre-/post-treated with the compound of the present invention at a concentration of 500 nM or aminoguanidine (AG) at a concentration of 1 mM for 1 hour, and then pre-/post-treated with 500 μM MGO, and cultured for 24 hours. The medium was removed and then treated with 0.5 mg/ml 3-(4,5-dimethylthiazol-2-yl)-2,5-diphenyltetrazolium bromide (MTT) solution for 1 hour, and the reduced formazan was dissolved in 150 μl of DMSO, and the cell viability was measured by a microspectrophotometer at a wavelength of 570 nm.

SH-SY5Y cells = assay: Protection against MGO-induced cytotoxicity in SH-SY5Y cell line (MTT); conditions: Homo sapiens
Protocol: Specifically, SH-SY5Y cells were dispensed at 2×10^4 cells/well in a 96 well plate. Each cell line was pre-/post-treated with the compound of the present invention at a concentration of 500 nM or aminoguanidine (AG) at a concentration of 1 mM for 1 hour, and then pre-/post-treated with 500 μM MGO, and cultured for 24 hours. The medium was removed and then treated with 0.5 mg/ml 3-(4,5-dimethylthiazol-2-yl)-2,5-diphenyltetrazolium bromide (MTT) solution for 1 hour, and the reduced formazan was dissolved in 150 μl of DMSO, and the cell viability was measured by a microspectrophotometer at a wavelength of 570 nm.

[3] = 24 h, read-out: Cell viability, Post-treatment
[4] = read-out: Cell viability, Pre-treatment

N[C@H](CO)Cc1c[nH]c2ccc(O)cc12 [Compound 29, (S)-3-(2-amino-3-hydroxypropyl)-1H-indol-5-ol (L-tryptophanol)]
Fluorescence intensity on day 1 (×10^3) [1]: 362.50 ± 17.85 ×10^3 | MGO concentration on day 7 [2]: 0 µM | MGO concentration on day 1 [2]: 18.56 µM

N=C(N)NN [AG, aminoguanidine]
viability at 1000 µM (N2a cells; [3]): 102 ± 11.9% | viability at 1000 µM (N2a cells; [4]): 111 ± 9.32% | viability at 1000 µM (SH-SY5Y cells; [3]): 52.01 ± 0.24% | viability at 1000 µM (SH-SY5Y cells; [4]): 84.7 ± 1.75%

N#CC(N)Cc1c[nH]c2ccc(O)cc12 (stereo not shown) [Compound 31, 2-amino-3-(5-hydroxy-1H indol-3-yl)propanenitrile]
Fluorescence intensity on day 1 (×10^3) [1]: 14.58 ± 0.34 ×10^3 | MGO concentration on day 7 [2]: 0 µM | MGO concentration on day 1 [2]: 7.30 µM

NCC(N)Cc1c[nH]c2ccc(O)cc12 (stereo not shown) [Compound 30, 3-(2,3-diaminopropyl)-1H-indol-5-ol]
Fluorescence intensity on day 1 (×10^3) [1]: 156.92 ± 1.22 ×10^3 | MGO concentration on day 7 [2]: 16.43 µM | MGO concentration on day 1 [2]: 235.58 µM
